# “Also recorded” adds a separate entry of the source.
# Key:
# Format in all cases: physicochemical
# [1] = Stability study in climatic chamber: crystalline form and phase change by XRPD
# Protocol: (§1) The stabilities of two crystalline forms of dronedarone base, namely form B according to the instant invention and form A described above, are studied in a climatic chamber (reference : Firlabo SP_BVEHF) at 50° C., with or without 80% relative humidity (RH). The duration time of the stability study is set up at 1 month. Samples are monitored in terms of appearance by microscope observation, chemical degradation by HPLC, crystalline form and phase change by XRPD (X-Ray Powder Diffraction, reference : Bruker D5000) and thermal behavior by DSC and TGA (references : TA Instrument Q100/Q1000 for DSC analyses and 050/Q500 for TGA analyses). HPLC is performed with a Waters 2487 apparatus, using as mobile phase a gradient of acetonitrile and pH 4.0 phosphate buffer (30/70 to 70/30, V/V, gradient).
# [2] = Stability study in climatic chamber: appearance; details: after 15 and 30 days at 50° C./80% RH
# Protocol: as §1
# [3] = Thermodynamic stability of the crystalline phases (DSC, X-ray at various temperatures); details: at and around room temperature / upon heating
# Protocol: X-ray diffractograms registered at various temperatures from room temperature to 100° C., at intervals of 10° C., have confirmed the solid-solid transition from form A to form C. A first crystalline solid phase, designated as form A, exists from room temperature to […] Two crystalline forms are thus observed : form A from room temperature to about 50° C., and form C appearing above 50° C. and melting between 60 and 70° C.
# All DSC measurements are performed with a Mettler DSC822e (module DSC822e/700/109/414935/0025). If not indicated differently, 40 μL Al-crucibles with sealed lid and hole are used. All measurements are carried out in a nitrogen gas flow of 50 mL/min and chosen heating rate was 10° C./min., with a heating from 25° C. to at least 150° C.
# In comparison, the crystallized form C of dronedarone base presents a melting point at about 69° C. On heating with a rate of 10° C./min, form A transforms to form C at about 54° C.; on further heating, form C melts at about 65° C. (onset temperature of the second endothermic event). After formation of form C, if the heating is stopped below form C melting point and the medium is then cooled back to room temperature, form C typically transforms back to form A between 50 and 45° C.
# [4] = Stability study in climatic chamber: thermal behavior by DSC and TGA
# Protocol: as §1
# [5] = Stability study in climatic chamber: chemical degradation by HPLC; details: 50° C. with or without 80% RH, up to 30 days
# Protocol: as §1
# The results in terms of chemical degradation are presented in table 8, which summarizes the content in degradation product measured in the samples. The results in table 8 represent percentages in impurities (impurities appearing after the storage for 15 to 30 days, i.e. total impurities after storage minus impurities already present at t=0).
# The percentages correspond to the area under the peaks detected in chromatography.
# [6] = Dynamic Vapor Sorption (DVS) moisture sorption/desorption isotherms; details: 25° C., relative humidity 0 to 95% and back, two cycles
# Protocol: Moisture sorption/desorption isotherms are recorded on a DVS-1 from Surface Measurement Systems. Two cycles are run at 25° C., in which the relative humidity is stepped from 0 to 95% and back to 0%. The complete measurement time for both cycles is about 35 h. The data is evaluated using the software DVSWin V. 2.15.
# The DVS isotherms of the crystallized form B of dronedarone base are represented on FIG. 5, wherein the change in dry mass (expressed in percentages) is plotted against the target relative humidity (RH, expressed in percentages). On FIG. 5, <<Sorp>> and <<Desorp>> respectively designate the humidity sorption and desorption of each cycle.
smiles,measurement,setting,value
"CCCCc1oc2ccc(NS(C)(=O)=O)cc2c1C(=O)c1ccc(OCCCN(CCCC)CCCC)cc1 [Form A, 2-n-butyl-3-[4-(3-di-n-butylaminopropoxy)benzoyl]-5-methylsulfonamido-benzofuran]",crystalline form change by XRPD,[1]; after 15 days at 50° C./80% RH,appearance of some peaks of form B
same,appearance after storage (visual),[2],yellow coloration; also recorded: agglomeration of the powder
same,thermodynamic stability of the solid form,[3],transforms to form C upon heating
same,change in the DSC spectrum after storage,[4]; stored at 50° C./80% RH,additional endothermic peak
"CCCCc1oc2ccc(NS(C)(=O)=O)cc2c1C(=O)c1ccc(OCCCN(CCCC)CCCC)cc1 [Form C, 2-n-butyl-3-[4-(3-di-n-butylaminopropoxy)benzoyl]-5-methylsulfonamido-benzofuran]",thermodynamic stability of the solid form,[3],unstable at room temperature
"CCCCc1oc2ccc(NS(C)(=O)=O)cc2c1C(=O)c1ccc(OCCCN(CCCC)CCCC)cc1 [Form B, 2-n-butyl-3-[4-(3-di-n-butylaminopropoxy)benzoyl]-5-methylsulfonamido-benzofuran]",crystalline form change by XRPD,"[1]; all tested conditions, up to 30 days",no change is detected
same,stability in terms of crystalline phase,[1]; storage at 50° C. with or without 80% RH,more stable than form A
same,chemical stability compared under the same storage conditions,[5],more stable than form A
same,hygroscopicity,[6],low
same,appearance after storage (visual),[2],no change is detected
same,thermodynamic stability of the solid form,[3],thermodynamically most stable one
same,change in the DSC spectrum after storage,[4]; whatever the storage conditions,No change
